Entries after “also recorded” stand apart in the source; their conditions may differ.

Assay [1] concerns OA synovial fibroblast cells. Put plainly: NO production in OA synovial fibroblast cells. The class given is cell-based, human. The note with it: Coll2-1 (0.45 and 4.5 nmol) or Coll2-1NO2 (4 and 40 pmol), 24 hours. The method, then: 1.1 Patients. Synovial tissue samples were obtained from 10 patients (8 women, 2 man; mean age 70 +/−6 years) with osteoarthritis (OA) of the knee at the time of total knee joint replacement surgery. All the subjects provided their informed consent.
1.2 Isolation and culture of synovial cells. Synovium biopsies were digested is with collagenase from Clostridium histolyticum, Type IA (1 mg/ml) (Sigma-Aldrich, Saint-Louis, USA) and 0.25% trypsin (Sigma Aldrich, Saint Louis, USA) with 0.68 mM EDTA in Tris buffer 0.1M, pH 7.4 in complete medium (CM) (DMEM (Dulbecco's Modified Eagle's Medium) Low Glucose supplemented with 10 mM HEPES, 100 U/ml penicillin, 100 μg/ml streptomycin, 2 mM glutamine and 10% fetal calf serum (Lonza, Verviers, Belgium)) for 1 hour at 37° C. The cells suspensions were passed through a 70-μm filter to remove any undigested tissue. The filtered cells suspensions were then collected by centrifugation at 800 g and were cultured in culture flasks. After 24 hours, medium was changed to eliminate non adherent cells. Synovial fibroblasts cells (SFC) were used after three passages. […]
1.7 NO production. Nitric oxide production was evaluated using a DAF2-DA fluorescent probe (Molecular Probes, Leiden, The Netherlands). […] The fluorescence intensity was measured every hour for 6 hours. […] The numbers of adherent cells were measured by cristal violet assay.

The next assay deals with IL-6. Put plainly: IL-6 mRNA expression by Real Time PCR in OA synovial fibroblast cells. Type of assay: cell-based, human. The note with it: increasing concentrations of peptide, 24 hours. The method, then: 1.3 Treatment of synovial fibroblast cells. Cells were seeded into a six-well plate at the density of 2×10^5 cells/well in 2 ml of CM. When the cells reached confluence, the CM was replaced with 1% serum medium for 24 h to keep the cells quiescent. Cells were incubated for 24 hours with or without peptides Coll2-1 (^108HRGYPGLDG^116; 0.45 and 4.5 nmol) or Coll2-1NO2 (^108HRGYPGLDG-NO2^116; 4 and 40 pmol) at a range of concentrations found in the blood of osteoarthritic patients.
1.4 RNA extraction and Real Time Reverse Transcriptase-Polymerase Chain Reaction (RT PCR). Total RNA were extracted using the RNeasy Mini Kit (Qiagen, Netherlands) and were reverse transcribed with SuperScript III Reverse Transcriptase (Invitrogen, Belgium) according to the manufacturer's instructions. The cDNAs were quantified by real-time quantitative PCR using the Rotor Gene instrument (Qiagen, Venlo, Netherlands) and the SYBR Premix Ex Taq kit (Takara, Verviers, Belgium). The level of gene expression was determined by interpolation with a standard curve. To standardize mRNA levels, HPRT, a house keeping gene, was amplified as an internal control. […]

Turning to HRGYPGLDG [Coll2-1], the “production of NO (nitric oxide)” value in assay [1] is recorded as “decreased significantly; also recorded: decrease”. In addition, in the assay with IL-6, the IL-6 expression result is listed as “increased”.

Values taken from patent US20170320939A1, “COLL2-1 PEPTIDE AND ITS NITRATED FORM AS THERAPEUTIC TARGETS FOR OSTEOARTHRITIS TREATMENT” (Université de Liège, priority 2014, published 2017).
